In one test the target is DNA topoisomerase II (Homo sapiens, UniProt P11388+Q02880). Kind of test: Inhibitory activity in a cell-free assay of DNA cleavage mediated by purified HeLa cell topoisomerase II.
Test [1] has as its system P388. Kind of test: In vitro cytotoxicity was determined by quantitating P388 murine leukemia cells on a oultier counter following a 48 hour exposure of cells to the test compound. The test is classed as functional, cell-based. The following applies: Mus musculus, P388, 48 h.
The subject of test [2] is Mus musculus. Kind of test: In vivo antitumor activity was observed in mice at a dose of […] administered intravenously, subcutaneously. The class given is functional. The following applies: route intravenous.
The test system of test [3] is P388. Nature of the test: In vitro cytotoxicity was determined by quantitating P388 murine leukemia cells on a coultier counter following a 48 hour exposure of cells to the test compound. The class given is functional, cell-based. The following applies: Mus musculus, P388, 48 h.
Test [4] relates to Mus musculus. Kind of test: In vivo antitumor activity was observed in mice at a dose of 96 mg/kg administered intravenously. The class given is functional. The following applies: route intravenous.
For test [5], the system named is P388. Nature of the test: In vitro cytotoxicity was determined by quantitating P388 murine leukemia cells on a Coulter Counter following a 48 hour exposure of cells to the test compound. The class given is functional, cell-based. The following applies: Mus musculus, P388, 48 h.

pEC50, pIC50: −log10 of the molar value.

`Cc1cc(-c2c(F)cc3/c(=N/c4ccccc4O)ccn(C4CC4)c3c2F)cc(C)n1`: the concentration giving a half-maximal response (EC50) on DNA topoisomerase II is 1.6 µM.

`Cc1cc(-c2c(F)cc3/c(=N/NCCO)ccn(C4CC4)c3c2F)cc(C)n1`: the EC50 at DNA topoisomerase II amounted to 3.2 µM.

The compound `CC(=O)N/N=c1\ccn(C2CC2)c2c(F)c(-c3cc(C)nc(C)c3)c(F)cc12` returned an EC50 at DNA topoisomerase II of 20 µM.

Turning to `Cc1cc(-c2c(F)cc3/c(=N/Nc4cnc5ccccc5c4)ccn(C4CC4)c3c2F)cc(C)n1`, at DNA topoisomerase II, the EC50 amounted to 92 µM.

In the case of `Cc1cc(-c2c(F)cc3/c(=N/N)ccn(C4CC4)c3c2F)cc(C)n1`, the negative logarithm of the IC50 (pIC50) in the test on P388 [1] is 5.52. In addition, at DNA topoisomerase II, the EC50 stood at 1.7 µM.

In turn, `Cc1cc(-c2c(F)cc3/c(=N\O)ccn(C4CC4)c3c2F)cc(C)n1` came in with a half-maximal effective concentration (EC50) on DNA topoisomerase II of 1.4 µM.

In turn, `Cc1cc(-c2c(F)cc3c(c2F)N(C2CC2)C=CC3=C(C#N)C#N)cc(C)n1` had an EC50 at DNA topoisomerase II of 6.3 µM.

For the compound `Cc1cc(-c2c(F)cc3c(c2F)N(C2CC2)C=C/C3=C/C#N)cc(C)n1`, the concentration for a half-maximal effect (EC50) at DNA topoisomerase II turned out to be 4 µM.

In turn, `Cc1cc(-c2c(F)cc3/c(=N/CCCN(C)C)ccn(C4CC4)c3c2F)cc(C)n1` gave an EC50 on DNA topoisomerase II of 5.5 µM.

On DNA topoisomerase II, `CN/N=c1\ccn(C2CC2)c2c(F)c(-c3cc(C)nc(C)c3)c(F)cc12` displayed a concentration giving a half-maximal response (EC50) of 1.9 µM.

The compound `Cc1cc(-c2c(F)cc3/c(=N/Nc4ccccn4)ccn(C4CC4)c3c2F)cc(C)n1` displayed a T/C in the test on Mus musculus [2] of 37%. This compound also registered a concentration for a half-maximal effect (EC50) on DNA topoisomerase II of 0.98 µM. The negative-log IC50 (pIC50) in the test with P388 [3] is 6.00.

With `Cc1cc(-c2c(F)cc3/c(=N/NC(N)=O)ccn(C4CC4)c3c2F)cc(C)n1`, the EC50 at DNA topoisomerase II is 3.1 µM.

On to `Cc1cc(-c2c(F)cc3/c(=N/Sc4ccccn4)ccn(C4CC4)c3c2F)cc(C)n1`, for which the concentration for a half-maximal effect (EC50) on DNA topoisomerase II amounted to 3.8 µM.

For the compound `Cc1cc(-c2c(F)cc3/c(=N/C4CC4)ccn(C4CC4)c3c2F)cc(C)n1`, the 50% effective concentration (EC50) on DNA topoisomerase II came to 2.4 µM.

Compound `Cc1cc(-c2c(F)cc3/c(=N/Sc4ccc(Cl)cc4)ccn(C4CC4)c3c2F)cc(C)n1` had an EC50 on DNA topoisomerase II of 9.4 µM.

With `Cc1cc(-c2c(F)cc3c(=O)ccn(C4CC4)c3c2F)cc(C)n1`, the pIC50 in the test on P388 [3] is 5.01.

Turning to `CO/N=c1/ccn(C2CC2)c2c(F)c(-c3cc(C)nc(C)c3)c(F)cc12`, at DNA topoisomerase II, the EC50 came to 2.6 µM.

The compound `Cc1cc(-c2c(F)cc3/c(=N/CCN(C)C)ccn(C4CC4)c3c2F)cc(C)n1` displayed a 50% effective concentration (EC50) at DNA topoisomerase II of 14 µM.

For `Cc1cc(-c2c(F)cc3c(=S)ccn(C4CC4)c3c2F)cc(C)n1`, the EC50 at DNA topoisomerase II turned out to be 76 µM.

In turn, `CCOC(=O)/C(C#N)=C1\C=CN(C2CC2)c2c1cc(F)c(-c1cc(C)nc(C)c1)c2F` displayed an EC50 on DNA topoisomerase II of 4.8 µM.

`Cc1cc(-c2c(F)cc3/c(=N/c4ccc(N)cc4)ccn(C4CC4)c3c2F)cc(C)n1` gave an EC50 at DNA topoisomerase II of 7.6 µM.

On DNA topoisomerase II, `Cc1cc(-c2c(F)cc3/c(=N/Nc4c5ccccc5nc5ccccc45)ccn(C4CC4)c3c2F)cc(C)n1` registered a concentration for a half-maximal effect (EC50) of 21 µM.

Turning to `Cc1ccc(S(=O)(=O)/N=c2\ccn(C3CC3)c3c(F)c(-c4cc(C)nc(C)c4)c(F)cc23)cc1`, the concentration for a half-maximal effect (EC50) on DNA topoisomerase II worked out at 45 µM.

`Cc1cc(-c2c(F)cc3/c(=N/c4ccccn4)ccn(C4CC4)c3c2F)cc(C)n1`: the 50% effective concentration (EC50) on DNA topoisomerase II amounted to 3.6 µM.

In the case of `Cc1cc(-c2c(F)cc3/c(=N/N4C(=O)c5ccccc5C4=O)ccn(C4CC4)c3c2F)cc(C)n1`, the EC50 on DNA topoisomerase II came to 16 µM.

On DNA topoisomerase II, `Cc1cc(-c2c(F)cc3/c(=N/N(C)C)ccn(C4CC4)c3c2F)cc(C)n1` yielded a 50% effective concentration (EC50) of 2.3 µM. The compound also showed a pIC50 in the test on P388 [3] of 6.57.

In the case of `Cc1cc(-c2c(F)cc3c4nn(-c5ccccc5)c(=O)c-4cn(C4CC4)c3c2F)cc(C)n1`, at DNA topoisomerase II (read-out: EC50), the pEC50 was 5.57.

In the case of `Cc1cc(-c2c(F)cc3c(=N)ccn(C4CC4)c3c2F)cc(C)n1`, the EC50 at DNA topoisomerase II turned out to be 12 µM.

In turn, `COc1cc([C@@H]2c3cc4c(cc3[C@@H](O[C@@H]3O[C@@H]5CO[C@@H](C)O[C@H]5[C@H](O)[C@H]3O)[C@H]3COC(=O)[C@H]23)OCO4)cc(OC)c1O` [ETOPOSIDE] showed a T/C in the test on Mus musculus [4] of 3%. This compound had a negative-log IC50 (pIC50) in the test on P388 [5] of 6.92.

As usually defined, the EC50 is the concentration at which the effect is half-maximal. A high value points to weaker potency. A word on the pIC50: it is −log10 of the IC50, conventionally taken in molar units. Low readings indicate a high IC50, high ones a low IC50. The T/C is the result in the treated group divided by that in the control group, in per cent. Usually pEC50 stands for the EC50 on a negative log10 scale, so that one unit is a factor of ten.
